How the values were obtained:
Human δ-opioid (DOP) = molecular target: T1, Human δ-opioid (DOP) (Homo sapiens, UniProt P41143); test: Radioligand binding, human δ-opioid (DOP) membranes, FlashPlate, [3H]-Bremazocine; settings: compound at 10 μM, [3H]-Bremazocine
T1 construct: purchased Perkin Elmer Biosignal
Procedure, shortened: (§1)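 Cloned human receptor membranes were coated onto FlashPlate wells and incubated with radioligand and compound (added from a 0.5 mM DMSO daughter plate) for 1 hour at room temperature in the dark. Scintillation counting gave percent inhibition, with DMSO defining total and reference ligand defining non-specific binding.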

Human κ-Opioid (KOP) = molecular target: T2, Human κ-Opioid (KOP) (Homo sapiens, UniProt P41145); test: Radioligand binding, human κ-opioid (KOP) membranes, filtration, [3H]-Diprenorphine; settings: compound at 10 μM, [3H]-Diprenorphine
T2 construct: purchased Perkin Elmer Biosignal
Procedure, shortened: (§2)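 Filtration binding on cloned human receptor membranes (1 Unit/well), [125I]-Substance P for NK1 and [3H]-Diprenorphine for KOP, 1 h at room temperature. Filters PEI-presoaked, washed with cold 50 mM Tris-HCl pH 7.4, counted by scintillation; percent inhibition calculated, reference ligand defining non-specific binding.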

Human Melanocortin (MC3) = molecular target: T3, Human Melanocortin (MC3) (Homo sapiens, UniProt P41968); test: Radioligand binding, human melanocortin MC3 membranes, FlashPlate, [125I]-NDP-αMSH; settings: compound at 10 μM, [125I]-NDP-αMSH
T3 construct: purchased Perkin Elmer Biosignal
Procedure, shortened: as §1

Human Melanocortin (MC4) = molecular target: T4, Human Melanocortin (MC4) (Homo sapiens, UniProt P32245); test: Radioligand binding, human melanocortin MC4 membranes, FlashPlate, [125I]-NDP-αMSH; settings: compound at 10 μM, [125I]-NDP-αMSH
T4 construct: purchased Perkin Elmer Biosignal
Procedure, shortened: as §1

Human melanocortin (MC5) = molecular target: T5, Human melanocortin (MC5) (Homo sapiens, UniProt P33032); test: Radioligand binding, human melanocortin MC5 membranes, FlashPlate, [125I]-NDP-αMSH; settings: compound at 10 μM, [125I]-NDP-αMSH
T5 construct: purchased Perkin Elmer Biosignal
Procedure, shortened: as §1

[1] = molecular target: T6, Human melanin-concentrating hormone (MCH1) (Homo sapiens, UniProt Q99705); test: Radioligand binding, human melanin-concentrating hormone MCH1 membranes, FlashPlate, [125I]-S36057; settings: compound at 10 μM; for A6: inhibition of radioligand binding, human melanin-concentrating hormone (MCH1): [125I]-S36057
T6 construct: purchased Perkin Elmer Biosignal
Procedure, shortened: as §1

Human μ-opioid (MOP) = molecular target: T7, Human μ-opioid (MOP) (Homo sapiens, UniProt P35372); test: Radioligand binding, human μ-opioid (MOP) membranes, FlashPlate, [3H]-Naloxone; settings: compound at 10 μM, [3H]-Naloxone
T7 construct: purchased Perkin Elmer Biosignal
Procedure, shortened: as §1

Human neurokinin (NK1) = molecular target: T8, Human neurokinin (NK1) (Homo sapiens, UniProt P25103); test: Radioligand binding, human neurokinin NK1 membranes, filtration, [125I]-Substance P; settings: compound at 10 μM, [125I]-Substance P
T8 construct: purchased Perkin Elmer Biosignal
Procedure, shortened: as §2

[2] = molecular target: T9, Human neuropeptide Y (NPY-Y1) (Homo sapiens, UniProt P25929); test: Radioligand binding, human neuropeptide Y NPY-Y1 membranes, FlashPlate, [125I]-PYY; settings: compound at 10 μM, [125I]-PYY
T9 construct: purchased Perkin Elmer Biosignal
T9 sequence (P25929 1-384): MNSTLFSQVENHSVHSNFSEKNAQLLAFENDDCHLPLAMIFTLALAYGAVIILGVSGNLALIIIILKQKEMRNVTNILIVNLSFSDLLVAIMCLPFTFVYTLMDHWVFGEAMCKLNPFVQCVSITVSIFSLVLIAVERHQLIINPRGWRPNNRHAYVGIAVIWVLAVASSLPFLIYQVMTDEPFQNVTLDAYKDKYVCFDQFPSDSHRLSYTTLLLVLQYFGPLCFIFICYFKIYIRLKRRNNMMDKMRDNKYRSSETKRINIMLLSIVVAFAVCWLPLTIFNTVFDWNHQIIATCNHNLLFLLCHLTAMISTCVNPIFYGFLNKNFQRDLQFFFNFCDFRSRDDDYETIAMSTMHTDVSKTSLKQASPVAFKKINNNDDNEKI
Procedure, shortened: as §1

Human opioid (ORL1) = molecular target: T10, Human opioid (ORL1) (Homo sapiens, UniProt P41146); test: Radioligand binding, human opioid ORL1 membranes, FlashPlate, [125I]-Nociceptin; settings: compound at 10 μM, [125I]-Nociceptin
T10 construct: purchased Perkin Elmer Biosignal
Procedure, shortened: as §1

Mouse urotensin (mUR2) = molecular target: T11, Mouse urotensin (mUR2) (Mus musculus, UniProt Q8VIH9); test: Radioligand binding, mouse urotensin mUR2 membranes, FlashPlate, [125I]-Urotensin II; settings: compound at 10 μM, [125I]-Urotensin II
T11 construct: purchased Perkin Elmer Biosignal
T11 sequence (Q8VIH9 1-385): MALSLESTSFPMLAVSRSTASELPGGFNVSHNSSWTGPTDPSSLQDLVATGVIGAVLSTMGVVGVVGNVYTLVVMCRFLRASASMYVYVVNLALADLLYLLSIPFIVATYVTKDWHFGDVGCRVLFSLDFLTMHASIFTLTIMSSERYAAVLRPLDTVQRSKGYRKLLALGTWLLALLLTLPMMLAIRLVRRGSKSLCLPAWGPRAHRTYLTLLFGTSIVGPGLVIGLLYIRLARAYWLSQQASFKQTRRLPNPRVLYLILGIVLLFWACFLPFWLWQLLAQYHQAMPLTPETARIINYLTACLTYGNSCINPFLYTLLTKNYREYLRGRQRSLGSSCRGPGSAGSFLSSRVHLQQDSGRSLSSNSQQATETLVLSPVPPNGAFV
Procedure, shortened: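 Cloned mouse urotensin (mUR2) receptor membranes from Perkin Elmer Biosignal were immobilized in FlashPlate microplates using a proprietary coating. Each well got 19.5 μl buffer, then 0.5 μl of DMSO, reference ligand, or compound. Adding 5 μl of [125I]-Urotensin II, diluted to 5× final concentration in binding buffer, started binding. Plates were sealed with TopSeal-A and incubated 1 hour at room temperature in the dark. Wells were counted for 30 seconds each on a TopCount after a 60-second delay, and percentage inhibition was calculated.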

T8 sequence (P25103 whole entry): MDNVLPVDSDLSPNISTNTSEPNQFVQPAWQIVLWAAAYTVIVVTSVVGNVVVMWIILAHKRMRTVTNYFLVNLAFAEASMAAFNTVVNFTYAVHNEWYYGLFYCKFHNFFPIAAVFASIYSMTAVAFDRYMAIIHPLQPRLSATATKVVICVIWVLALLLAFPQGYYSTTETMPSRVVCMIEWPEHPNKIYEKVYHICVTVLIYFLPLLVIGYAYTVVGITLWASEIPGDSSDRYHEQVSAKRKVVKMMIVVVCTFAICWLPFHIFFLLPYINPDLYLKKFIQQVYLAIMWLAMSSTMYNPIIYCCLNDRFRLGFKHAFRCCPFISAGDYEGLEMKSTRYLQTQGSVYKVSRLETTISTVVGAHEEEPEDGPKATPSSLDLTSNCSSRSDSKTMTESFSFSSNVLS
T3 sequence (P41968 whole entry): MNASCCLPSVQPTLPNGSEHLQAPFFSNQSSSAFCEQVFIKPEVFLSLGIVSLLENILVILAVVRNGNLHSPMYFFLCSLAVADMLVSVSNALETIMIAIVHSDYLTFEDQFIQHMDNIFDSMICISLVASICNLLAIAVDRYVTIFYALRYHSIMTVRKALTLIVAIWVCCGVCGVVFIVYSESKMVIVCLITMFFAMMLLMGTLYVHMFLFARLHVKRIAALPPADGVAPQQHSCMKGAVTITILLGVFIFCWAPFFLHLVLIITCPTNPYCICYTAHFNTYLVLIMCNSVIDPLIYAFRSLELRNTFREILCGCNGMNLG
T2 sequence (P41145 whole entry): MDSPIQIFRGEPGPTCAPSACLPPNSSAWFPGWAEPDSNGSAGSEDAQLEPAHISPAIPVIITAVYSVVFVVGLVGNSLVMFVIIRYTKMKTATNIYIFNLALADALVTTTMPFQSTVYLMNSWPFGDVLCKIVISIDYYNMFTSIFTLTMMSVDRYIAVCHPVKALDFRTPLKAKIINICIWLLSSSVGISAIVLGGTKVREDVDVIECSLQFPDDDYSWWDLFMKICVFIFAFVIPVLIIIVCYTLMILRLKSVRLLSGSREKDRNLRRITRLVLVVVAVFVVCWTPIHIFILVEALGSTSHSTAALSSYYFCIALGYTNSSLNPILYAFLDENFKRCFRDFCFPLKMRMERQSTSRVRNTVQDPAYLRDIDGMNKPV
T5 sequence (P33032 whole entry): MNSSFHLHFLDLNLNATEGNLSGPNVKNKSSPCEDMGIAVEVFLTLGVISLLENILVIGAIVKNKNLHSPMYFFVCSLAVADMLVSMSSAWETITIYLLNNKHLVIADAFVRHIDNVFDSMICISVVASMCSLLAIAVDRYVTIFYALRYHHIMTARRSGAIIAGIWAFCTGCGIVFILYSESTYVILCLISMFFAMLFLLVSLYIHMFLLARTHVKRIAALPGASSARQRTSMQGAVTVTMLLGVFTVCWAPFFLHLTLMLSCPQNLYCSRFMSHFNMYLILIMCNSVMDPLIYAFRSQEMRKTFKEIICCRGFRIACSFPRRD
T7 sequence (P35372 whole entry): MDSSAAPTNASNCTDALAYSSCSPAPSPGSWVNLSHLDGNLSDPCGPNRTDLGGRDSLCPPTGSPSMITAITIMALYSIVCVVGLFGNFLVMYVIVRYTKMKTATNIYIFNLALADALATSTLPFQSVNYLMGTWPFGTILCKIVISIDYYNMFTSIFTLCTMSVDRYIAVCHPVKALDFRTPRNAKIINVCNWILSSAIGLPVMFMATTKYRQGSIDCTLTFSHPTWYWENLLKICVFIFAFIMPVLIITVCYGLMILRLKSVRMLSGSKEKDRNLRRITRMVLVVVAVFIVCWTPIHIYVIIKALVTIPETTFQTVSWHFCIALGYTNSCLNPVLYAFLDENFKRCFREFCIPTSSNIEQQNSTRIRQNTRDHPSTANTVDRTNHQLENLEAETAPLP
T10 sequence (P41146 whole entry): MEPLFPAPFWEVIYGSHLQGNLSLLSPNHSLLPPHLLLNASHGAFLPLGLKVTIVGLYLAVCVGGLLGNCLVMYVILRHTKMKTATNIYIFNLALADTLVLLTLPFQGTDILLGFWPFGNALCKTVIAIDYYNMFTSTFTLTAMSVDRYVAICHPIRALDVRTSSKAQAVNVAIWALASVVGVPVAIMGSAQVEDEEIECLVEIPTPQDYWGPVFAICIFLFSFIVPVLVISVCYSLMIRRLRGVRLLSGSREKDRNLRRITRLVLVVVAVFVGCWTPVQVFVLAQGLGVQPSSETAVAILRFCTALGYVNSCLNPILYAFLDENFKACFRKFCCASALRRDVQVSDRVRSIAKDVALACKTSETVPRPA
T1 sequence (P41143 whole entry): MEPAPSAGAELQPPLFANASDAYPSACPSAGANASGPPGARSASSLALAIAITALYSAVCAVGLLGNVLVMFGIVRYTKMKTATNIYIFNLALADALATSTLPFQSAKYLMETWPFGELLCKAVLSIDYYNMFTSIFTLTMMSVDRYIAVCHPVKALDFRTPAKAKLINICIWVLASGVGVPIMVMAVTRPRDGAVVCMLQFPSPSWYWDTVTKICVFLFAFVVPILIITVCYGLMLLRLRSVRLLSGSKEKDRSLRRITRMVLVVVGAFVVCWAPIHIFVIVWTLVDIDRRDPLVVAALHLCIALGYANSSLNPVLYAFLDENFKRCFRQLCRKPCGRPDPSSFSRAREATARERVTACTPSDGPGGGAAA
T4 sequence (P32245 whole entry): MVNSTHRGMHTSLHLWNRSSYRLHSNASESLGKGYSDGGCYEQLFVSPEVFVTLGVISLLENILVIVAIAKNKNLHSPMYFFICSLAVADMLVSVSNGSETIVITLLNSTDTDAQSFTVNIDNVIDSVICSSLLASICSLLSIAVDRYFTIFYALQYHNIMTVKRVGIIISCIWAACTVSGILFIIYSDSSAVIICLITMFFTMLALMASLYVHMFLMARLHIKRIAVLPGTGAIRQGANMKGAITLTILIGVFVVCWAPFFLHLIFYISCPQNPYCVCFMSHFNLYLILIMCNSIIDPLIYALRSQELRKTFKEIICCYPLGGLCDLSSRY
T6 sequence (Q99705 whole entry): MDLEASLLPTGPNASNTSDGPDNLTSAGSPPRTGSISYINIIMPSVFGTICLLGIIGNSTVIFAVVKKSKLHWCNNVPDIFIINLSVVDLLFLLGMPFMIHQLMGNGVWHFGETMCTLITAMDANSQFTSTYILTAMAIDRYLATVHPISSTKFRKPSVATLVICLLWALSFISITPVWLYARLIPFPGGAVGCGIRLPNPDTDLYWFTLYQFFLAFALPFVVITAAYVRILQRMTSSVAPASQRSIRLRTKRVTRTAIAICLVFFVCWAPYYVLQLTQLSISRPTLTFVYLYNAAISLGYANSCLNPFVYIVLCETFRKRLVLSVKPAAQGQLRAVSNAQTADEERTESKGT

Compound | A1: inhibition of radioligand binding, human δ-opioid (DOP) (Human δ-opioid (DOP)) | A2: inhibition of radioligand binding, human κ-opioid (KOP) (Human κ-Opioid (KOP)) | A3: inhibition of radioligand binding, human melanocortin (MC3) (Human Melanocortin (MC3)) | A4: inhibition of radioligand binding, human melanocortin (MC4) (Human Melanocortin (MC4)) | A5: inhibition of radioligand binding, human melanocortin (MC5) (Human melanocortin (MC5)) | A6: inhibition of radioligand binding, human melanin-concentrating hormone (MCH1) [1] | A7: inhibition of radioligand binding, human μ-opioid (MOP) (Human μ-opioid (MOP)) | A8: inhibition of radioligand binding, human neurokinin (NK1) (Human neurokinin (NK1)) | A9: inhibition of radioligand binding, human neuropeptide Y (NPY-Y1) [2] | A10: inhibition of radioligand binding, human opioid (ORL1) (Human opioid (ORL1)) | A11: inhibition of radioligand binding, mouse urotensin (mUR2) (Mouse urotensin (mUR2)) | further results
N=C(N)NCCC(=O)N[C@H]1C(OCc2ccc(Cl)cc2)O[C@H](COCc2ccc3ccccc3c2)[C@@H](O)[C@@H]1OCc1ccc(-c2ccccc2)cc1 (stereo partly shown) [compound 533] | − (“−” indicates less than 50% inhibition at 10 μM) | − (“−” indicates less than 50% inhibition at 10 μM) | + (“+” indicates greater than 50% inhibition at 10 μM) | + (“+” indicates greater than 50% inhibition at 10 μM) | + (“+” indicates greater than 50% inhibition at 10 μM) | + (“+” indicates greater than 50% inhibition at 10 μM) | − (“−” indicates less than 50% inhibition at 10 μM) | + (“+” indicates greater than 50% inhibition at 10 μM) | − (“−” indicates less than 50% inhibition at 10 μM) | − (“−” indicates less than 50% inhibition at 10 μM) | − (“−” indicates less than 50% inhibition at 10 μM) | –
NCCCC(=O)NC1C(OCc2ccc(Cl)cc2)OC(COCc2ccccc2)C(O)C1OCc1ccc(Cl)cc1 (single isomer, unassigned) [compound 491] | − (“−” indicates less than 50% inhibition at 10 μM) | − (“−” indicates less than 50% inhibition at 10 μM) | − (“−” indicates less than 50% inhibition at 10 μM) | – | – | – | − (“−” indicates less than 50% inhibition at 10 μM) | + (“+” indicates greater than 50% inhibition at 10 μM) | − (“−” indicates less than 50% inhibition at 10 μM) | + (“+” indicates greater than 50% inhibition at 10 μM) | − (“−” indicates less than 50% inhibition at 10 μM) | A4: inhibition of radioligand binding, human melanocortin (MC4) (Human Melanocortin (MC4); 10 µM): − (“−” indicates less than 50% inhibition at 10 μM); A5: inhibition of radioligand binding, human melanocortin (MC5) (Human melanocortin (MC5); 10 µM): − (“−” indicates less than 50% inhibition at 10 μM); A6: inhibition of radioligand binding, human melanin-concentrating hormone (MCH1) ([1]; 10 µM): − (“−” indicates less than 50% inhibition at 10 μM)
NCCCC(=O)NC1C(OCc2ccc(Cl)cc2)OC(COCc2ccc3ccccc3c2)C(O)C1OCc1ccc2ccccc2c1 (single isomer, unassigned) [compound 496] | − (“−” indicates less than 50% inhibition at 10 μM) | − (“−” indicates less than 50% inhibition at 10 μM) | + (“+” indicates greater than 50% inhibition at 10 μM) | + (“+” indicates greater than 50% inhibition at 10 μM) | + (“+” indicates greater than 50% inhibition at 10 μM) | + (“+” indicates greater than 50% inhibition at 10 μM) | + (“+” indicates greater than 50% inhibition at 10 μM) | + (“+” indicates greater than 50% inhibition at 10 μM) | − (“−” indicates less than 50% inhibition at 10 μM) | + (“+” indicates greater than 50% inhibition at 10 μM) | − (“−” indicates less than 50% inhibition at 10 μM) | –
COC1C(O)C(COCc2ccc3ccccc3c2)OC(OCc2ccc(Cl)cc2)C1NC(=O)C1CCCN1 (stereo not shown) [compound 347] | − (“−” indicates less than 50% inhibition at 10 μM) | − (“−” indicates less than 50% inhibition at 10 μM) | − (“−” indicates less than 50% inhibition at 10 μM) | − (“−” indicates less than 50% inhibition at 10 μM) | − (“−” indicates less than 50% inhibition at 10 μM) | − (“−” indicates less than 50% inhibition at 10 μM) | − (“−” indicates less than 50% inhibition at 10 μM) | + (“+” indicates greater than 50% inhibition at 10 μM) | − (“−” indicates less than 50% inhibition at 10 μM) | − (“−” indicates less than 50% inhibition at 10 μM) | − (“−” indicates less than 50% inhibition at 10 μM) | –
N=C(N)NCCC(=O)NC1C(OCc2ccc(-c3ccccc3)cc2)OC(COCc2ccc3ccccc3c2)C(O)C1OCc1ccc(Cl)cc1 (stereo not shown) [compound 408] | – | – | – | – | – | – | – | – | – | – | – | A1: inhibition of radioligand binding (Human δ-opioid (DOP); human DOP membranes): − (“−” indicates less than 50% inhibition at 10 μM); A2: inhibition of radioligand binding (Human κ-Opioid (KOP); human KOP membranes): − (“−” indicates less than 50% inhibition at 10 μM); A3: inhibition of radioligand binding (Human Melanocortin (MC3); human MC3 membranes): + (“+” indicates greater than 50% inhibition at 10 μM); A4: inhibition of radioligand binding (Human Melanocortin (MC4); human MC4 membranes): + (“+” indicates greater than 50% inhibition at 10 μM); A5: inhibition of radioligand binding (Human melanocortin (MC5); human MC5 membranes): + (“+” indicates greater than 50% inhibition at 10 μM); A6: inhibition of radioligand binding ([1]; [125I]-S36057, human MCH1 membranes): + (“+” indicates greater than 50% inhibition at 10 μM); A7: inhibition of radioligand binding (Human μ-opioid (MOP); human MOP membranes): − (“−” indicates less than 50% inhibition at 10 μM); A8: inhibition of radioligand binding (Human neurokinin (NK1); human NK1 membranes): + (“+” indicates greater than 50% inhibition at 10 μM); A9: inhibition of radioligand binding ([2]; human NPY-Y1 membranes): − (“−” indicates less than 50% inhibition at 10 μM); A10: inhibition of radioligand binding (Human opioid (ORL1); human ORL1 membranes): + (“+” indicates greater than 50% inhibition at 10 μM); A11: inhibition of radioligand binding (Mouse urotensin (mUR2); mouse mUR2 membranes): − (“−” indicates less than 50% inhibition at 10 μM)

Source: US20080009418A1, “Selective Inhibitors” (Alchemia LTD., priority 2004, published 2008)
